Experimental data from patent publication US12398154B2, “Azaquinazoline pan-KRas inhibitors” (Mirati Therapeutics, Inc., priority 2020, dated 2025).

What was measured:
[1] = biological target: T1, KRas G13D (Homo sapiens, UniProt P01116, G13D); assay: KRas binding assay (TR-FRET displacement);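 further: One-hour room temperature incubation before TR-FRET reading, IC50 from a four-parameter curve fit to percent-of-control data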
T1 construct: Biotinylated KRas (corresponding to amino acids 1-169, produced at Accelegan Inc.); biotin (biotinylated); purchased Accelegan Inc
Experimental: (§2) The ability of a compound to bind to KRas was measured using a TR-FRET displacement assay. […] After a 60-minute incubation at room temperature, the reaction was measured using a BMG LABTECH CLARIO star Plus via TR-FRET. […] The POC values were fit to a 4-parameter IC50 equation and the IC50 value reported.

[2] = biological target: T2, KRas Q61H (Homo sapiens, UniProt P01116, Q61H); assay: KRas binding assay (TR-FRET displacement);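 further: TR-FRET signal read after one hour at room temperature, IC50 derived by four-parameter fitting of percent-of-control values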
T2 construct: Biotinylated KRas (corresponding to amino acids 1-169, produced at Accelegan Inc.); biotin (biotinylated); purchased Accelegan Inc
Experimental: as §2

[3] = tested on: phospho-ERK in A549 (G12S) cells; assay: Inhibition of KRas-mediated phosphorylation of ERK (in-cell western); type: cell-based; conditions: Homo sapiens, 3 hours compound, phospho-ERK normalized to GAPDH
Procedure, shortened: (§1)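 Cells treated 3 h with compounds (0.5% DMSO), fixed in formaldehyde and methanol-permeabilized. In-cell western for phospho-ERK (Thr202/Tyr204) normalized to GAPDH, as % of DMSO control; IC50 by 4-parameter fit.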

[4] = tested on: phospho-ERK in AsPC-1 (G12D) cells; assay: as above; type: cell-based; conditions: Homo sapiens, ASPC1, 3 h, 3 hours compound, phospho-ERK normalized to GAPDH
Procedure, shortened: as §1

[5] = tested on: phospho-ERK in HCT116 (G13D) cells; assay: as above; type: cell-based; conditions: Homo sapiens, HCT-116, 3 hours compound, phospho-ERK normalized to GAPDH
Procedure, shortened: as §1

[6] = tested on: phospho-ERK in MKN1 (WTdep) cells; assay: as above; type: cell-based; conditions: Homo sapiens, MKN-1, 3 hours compound, phospho-ERK normalized to GAPDH
Procedure, shortened: as §1

[7] = tested on: phospho-ERK in NCI-H358 (G12C) cells; assay: as above; type: cell-based; conditions: Homo sapiens, 3 hours compound, phospho-ERK normalized to GAPDH
Procedure, shortened: as §1

[8] = tested on: phospho-ERK in NCI-H460 (Q61H) cells; assay: as above; type: cell-based; conditions: Homo sapiens, NCI-H460, 3 h, 3 hours compound, phospho-ERK normalized to GAPDH
Procedure, shortened: as §1

[9] = tested on: phospho-ERK in NCI-H727 (G12V) cells; assay: as above; type: cell-based; conditions: Homo sapiens, NCI-H727, 3 h, 3 hours compound, phospho-ERK normalized to GAPDH
Procedure, shortened: as §1

[10] = tested on: phospho-ERK in PSN-1 (G12R) cells; assay: as above; type: cell-based; conditions: Homo sapiens, PSN1, 3 hours compound, phospho-ERK normalized to GAPDH
Procedure, shortened: as §1

[11] = biological target: KRas G12D (Homo sapiens, UniProt P01116, G12D); assay: biochemical;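 further: TR-FRET displacement binding assay on KRas, read after a one-hour incubation at room temperature, IC50 fitted from percent-of-control values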
Experimental: as §2

[12] = biological target: KRas G12V (Homo sapiens, UniProt P01116, G12V); assay: biochemical;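 further: KRas binding measured by TR-FRET displacement at room temperature, IC50 fitted from percent of control values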
Experimental: as §2

[13] = biological target: KRas G12R (Homo sapiens, UniProt P01116, G12R); assay: biochemical;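 further: TR-FRET displacement assay of compound binding to KRas, read after one hour at room temperature, potency from a four-parameter fit of percent-of-control values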
Experimental: as §2

[14] = biological target: KRas G12A (Homo sapiens, UniProt P01116, G12A); assay: biochemical;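 further: binding to KRas measured by TR-FRET displacement after one hour at room temperature, IC50 from a four-parameter fit of percent-of-control values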
Experimental: as §2

[15] = biological target: KRas G12S (Homo sapiens, UniProt P01116, G12S); assay: biochemical;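 further: TR-FRET displacement binding to KRas, read after one hour incubation at room temperature, IC50 from four-parameter fit of percent of control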
Experimental: as §2

[16] = biological target: KRas G12C (Homo sapiens, UniProt P01116, G12C); assay: biochemical;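 further: binding to KRas assessed by TR-FRET displacement after one hour incubation at room temperature, potency fitted from percent-of-control values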
Experimental: as §2

[17] = biological target: KRas WT (Homo sapiens, UniProt P01116); assay: biochemical;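 further: binding to KRas read as TR-FRET displacement after a one-hour room-temperature incubation, IC50 derived from percent-of-control values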
Experimental: as §2

[18] = tested on: pERK in ASPC1 cells; assay: Inhibition of KRas phosphorylation of ERK (Cisbio HTRF pERK assay); conditions: Homo sapiens, ASPC1, read-out: Inhibition (HTRF IC50) of KRas-mediated Phosphorylation of ERK, AsPC-1
[19] = tested on: pERK in H727 cells; assay: as above; conditions: Homo sapiens, NCI-H727, read-out: Inhibition (HTRF IC50) of KRas-mediated Phosphorylation of ERK, H727
[20] = tested on: pERK in HCT116 cells; assay: as above; conditions: Homo sapiens, HCT-116, read-out: Inhibition (HTRF IC50) of KRas-mediated Phosphorylation of ERK, HCT116
[21] = tested on: pERK in MKN1 cells; assay: as above; conditions: Homo sapiens, MKN-1, 3 h, read-out: Inhibition (HTRF IC50) of KRas-mediated Phosphorylation of ERK, MKN1
[22] = tested on: pERK in PSN1 cells; assay: as above; conditions: Homo sapiens, PSN1, 3 h, read-out: Inhibition (HTRF IC50) of KRas-mediated Phosphorylation of ERK, PSN1

Sequence of KRas WT (P01116 1-169 isoform P01116-2): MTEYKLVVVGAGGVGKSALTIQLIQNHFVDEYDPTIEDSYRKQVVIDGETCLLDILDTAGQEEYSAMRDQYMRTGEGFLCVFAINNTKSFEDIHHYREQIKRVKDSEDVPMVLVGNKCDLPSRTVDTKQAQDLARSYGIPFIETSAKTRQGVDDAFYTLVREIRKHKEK
T1 sequence (P01116 1-169 isoform P01116-2 G13D): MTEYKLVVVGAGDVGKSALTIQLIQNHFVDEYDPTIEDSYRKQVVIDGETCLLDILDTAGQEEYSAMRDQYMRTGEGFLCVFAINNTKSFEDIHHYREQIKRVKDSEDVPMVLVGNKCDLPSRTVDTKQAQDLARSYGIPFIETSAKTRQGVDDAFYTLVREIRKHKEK
Sequence of KRas G12R (P01116 1-169 isoform P01116-2 G12R): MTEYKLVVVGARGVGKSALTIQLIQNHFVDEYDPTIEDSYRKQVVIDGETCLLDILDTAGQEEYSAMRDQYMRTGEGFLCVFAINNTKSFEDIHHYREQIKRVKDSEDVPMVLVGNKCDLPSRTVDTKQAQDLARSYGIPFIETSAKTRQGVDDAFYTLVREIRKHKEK
Sequence of KRas G12C (P01116 1-169 isoform P01116-2 G12C): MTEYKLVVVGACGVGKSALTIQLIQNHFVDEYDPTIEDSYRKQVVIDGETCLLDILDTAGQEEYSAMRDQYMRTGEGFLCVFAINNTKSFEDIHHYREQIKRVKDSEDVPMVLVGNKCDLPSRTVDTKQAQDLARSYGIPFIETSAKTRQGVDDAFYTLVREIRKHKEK
T2 sequence (P01116 1-169 isoform P01116-2 Q61H): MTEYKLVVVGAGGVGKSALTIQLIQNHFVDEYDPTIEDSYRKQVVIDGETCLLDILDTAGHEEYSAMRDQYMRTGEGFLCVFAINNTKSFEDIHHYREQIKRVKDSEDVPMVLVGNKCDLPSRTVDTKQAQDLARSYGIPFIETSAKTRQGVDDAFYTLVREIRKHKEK
Sequence of KRas G12S (P01116 1-169 isoform P01116-2 G12S): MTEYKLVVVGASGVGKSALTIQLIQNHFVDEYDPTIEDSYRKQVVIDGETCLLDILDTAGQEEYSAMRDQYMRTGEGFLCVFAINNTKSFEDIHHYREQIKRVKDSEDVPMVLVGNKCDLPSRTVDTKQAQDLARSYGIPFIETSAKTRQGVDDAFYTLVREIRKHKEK
Sequence of KRas G12D (P01116 1-169 isoform P01116-2 G12D): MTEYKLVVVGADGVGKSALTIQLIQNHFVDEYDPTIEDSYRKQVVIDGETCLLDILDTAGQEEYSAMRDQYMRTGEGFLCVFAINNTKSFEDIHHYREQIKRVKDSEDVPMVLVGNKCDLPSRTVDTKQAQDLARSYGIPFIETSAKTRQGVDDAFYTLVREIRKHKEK
Sequence of KRas G12A (P01116 1-169 isoform P01116-2 G12A): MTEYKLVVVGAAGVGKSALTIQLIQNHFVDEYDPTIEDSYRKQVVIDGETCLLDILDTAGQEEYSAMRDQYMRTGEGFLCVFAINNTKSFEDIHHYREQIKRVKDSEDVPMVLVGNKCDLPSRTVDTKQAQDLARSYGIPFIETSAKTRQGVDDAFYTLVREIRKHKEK
Sequence of KRas G12V (P01116 1-169 isoform P01116-2 G12V): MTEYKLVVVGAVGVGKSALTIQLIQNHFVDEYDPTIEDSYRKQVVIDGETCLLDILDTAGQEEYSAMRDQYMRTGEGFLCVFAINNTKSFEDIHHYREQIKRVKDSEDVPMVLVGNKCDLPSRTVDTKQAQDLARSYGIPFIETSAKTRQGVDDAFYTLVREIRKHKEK

## C#Cc1c(F)ccc2cccc(-c3ncc4c(N5CCC[C@@](C)(O)C5)nc(OC[C@@]56CCCN5C[C@H](F)C6)nc4c3F)c12 [Example 51, (R)-1-(7-(8-ethynyl-7-fluoronaphthalen-1-yl)-8-fluoro-2-(((2R,7aS)-2-fluorohexahydro-1H-pyrrolizin-7a-yl)methoxy)pyrido[4,3-d]pyrimidin-4-yl)-3-methylpiperidin-3-ol]
[1]
  IC50: 36 nM
[2]
  IC50: 50 nM
[3]
  IC50: 2640 nM
[4]
  IC50: 586 nM
[5]
  IC50: 3720 nM
[6]
  IC50: 873 nM
[7]
  IC50: 715 nM
[8]
  IC50: ≥ 10000 nM
[9]
  IC50: 7230 nM
[10]
  IC50: ≥ 10000 nM
[11]
  IC50: 0.021 µM
[12]
  IC50: 0.035 µM
[13]
  IC50: 0.069 µM
[14]
  IC50: 0.036 µM
[15]
  IC50: 0.038 µM
[16]
  IC50: 0.035 µM
[17]
  IC50: 0.032 µM

## C#Cc1c(F)ccc2cccc(-c3ncc4c(N5CCC[C@@](C)(O)C5)nc(OCC56CCCN5CCC6)nc4c3F)c12 [Example 14, (R)-1-(7-(8-ethynyl-7-fluoronaphthalen-1-yl)-8-fluoro-2-((hexahydro-1H-pyrrolizin-7a-yl)methoxy)pyrido[4,3-d]pyrimidin-4-yl)-3-methylpiperidin-3-ol]
[1]
  IC50: 61 nM
[2]
  IC50: 80 nM
[3]
  IC50: ≥ 10000 nM
[4]
  IC50: 847 nM
[5]
  IC50: 1590 nM
[6]
  IC50: 1380 nM
[7]
  IC50: 725 nM
[8]
  IC50: ≥ 10000 nM
[9]
  IC50: 4580 nM
[10]
  IC50: ≥ 10000 nM
[11]
  IC50: 0.029 µM
[12]
  IC50: 0.052 µM
[13]
  IC50: 0.109 µM
[14]
  IC50: 0.058 µM
[15]
  IC50: 0.058 µM
[16]
  IC50: 0.051 µM
[17]
  IC50: 0.051 µM

## CCc1c(F)ccc2cc(O)cc(-c3ncc4c(N5CCCCC5)nc(OC[C@@]56CCCN5C[C@H](O)C6)nc4c3F)c12 [Example 7]
[1]
  IC50: 3 nM
[2]
  IC50: 3 nM
[3]
  IC50: 1090 nM
[4]
  IC50: 802 nM
[5]
  IC50: 627 nM
[6]
  IC50: 32 nM
[7]
  IC50: 199 nM
[8]
  IC50: 416 nM
[9]
  IC50: 530 nM
[10]
  IC50: 3590 nM
[11]
  IC50: ≤ 0.002 µM
[12]
  IC50: ≤ 0.002 µM
[13]
  IC50: ≤ 0.002 µM
[14]
  IC50: ≤ 0.002 µM
[15]
  IC50: ≤ 0.002 µM
[16]
  IC50: ≤ 0.002 µM
[17]
  IC50: 0.003 µM

## CCc1c(F)ccc2cc(O)cc(-c3ncc4c(N5CCCC6(CNC(=O)N6)C5)nc(OC[C@@]56CCCN5C[C@H](F)C6)nc4c3F)c12 (stereo partly shown) [Example 133]
[3]
  IC50: 55 nM
[4]
  IC50: 156 nM
[5]
  IC50: 650 nM
[6]
  IC50: 171 nM
[7]
  IC50: 41 nM
[8]
  IC50: 49 nM
[9]
  IC50: 612 nM
[10]
  IC50: ≥ 10000 nM
[11]
  IC50: ≤ 0.002 µM
[12]
  IC50: ≤ 0.002 µM
[13]
  IC50: ≤ 0.002 µM
[18]
  IC50: 0.144 µM
[19]
  IC50: 0.246 µM
[20]
  IC50: 0.36 µM

## CC1(O)CCCN(c2nc(OCC34CCCN3CCC4)nc3c(F)c(-c4cc(O)cc(Cl)c4C4CC4)ncc23)C1 (stereo not shown) [Example 71, 1-(7-(3-chloro-2-cyclopropyl-5-hydroxyphenyl)-8-fluoro-2-((tetrahydro-1H-pyrrolizin-7a(5H)-yl)methoxy)pyrido[4,3-d]pyrimidin-4-yl)-3-methylpiperidin-3-ol]
[3]
  IC50: ≥ 10000 nM
[4]
  IC50: 4730 nM
[5]
  IC50: 1950 nM
[6]
  IC50: 140 nM
[7]
  IC50: 361 nM
[8]
  IC50: 2170 nM
[9]
  IC50: 2240 nM
[10]
  IC50: ≥ 10000 nM
[11]
  IC50: 0.003 µM
[12]
  IC50: ≤ 0.002 µM
[13]
  IC50: 0.006 µM
[18]
  IC50: 2.1 µM
[19]
  IC50: 1.92 µM

## CCc1c(F)ccc2cccc(-c3ncc4c(N5CCC[C@@](C)(O)C5)nc(OC[C@@]56CCCN5C[C@H](F)C6)nc4c3F)c12 [Example 16, (R)-1-(7-(8-ethyl-7-fluoronaphthalen-1-yl)-8-fluoro-2-(((2R,7aS)-2-fluorohexahydro-1H-pyrrolizin-7a-yl)methoxy)pyrido[4,3-d]pyrimidin-4-yl)-3-methylpiperidin-3-ol]
[3]
  IC50: 1760 nM
[4]
  IC50: 654 nM
[5]
  IC50: 2180 nM
[6]
  IC50: 802 nM
[7]
  IC50: 1180 nM
[8]
  IC50: 113 nM
[9]
  IC50: ≥ 10000 nM
[10]
  IC50: ≥ 10000 nM
[21]
  IC50: 0.275 µM
[22]
  IC50: ≥ 10 µM

## C#Cc1c(F)ccc2cc(O)cc(-c3ncc4c(N5CCCC6(CNC(=O)C6)C5)nc(OC[C@@]56CCCN5C[C@H](F)C6)nc4c3F)c12 (stereo partly shown) [Example 24]
[3]
  IC50: ≥ 10000 nM
[4]
  IC50: 1680 nM
[5]
  IC50: 1370 nM
[6]
  IC50: 406 nM
[7]
  IC50: 454 nM
[8]
  IC50: 2820 nM
[9]
  IC50: 4720 nM
[10]
  IC50: 3690 nM
[11]
  IC50: ≤ 0.002 µM
[12]
  IC50: ≤ 0.002 µM
[13]
  IC50: ≤ 0.002 µM
[14]
  IC50: ≤ 0.002 µM
[15]
  IC50: ≤ 0.002 µM
[16]
  IC50: ≤ 0.002 µM
[17]
  IC50: ≤ 0.002 µM

## CCc1c(F)ccc2cccc(-c3ncc4c(N5CCC[C@@](C)(O)C5)nc(OCC56CCCN5CCC6)nc4c3F)c12 [Example 15]
[1]
  IC50: 42 nM
[2]
  IC50: 52 nM
[3]
  IC50: 3640 nM
[4]
  IC50: 731 nM
[5]
  IC50: 5160 nM
[6]
  IC50: 1260 nM
[7]
  IC50: 495 nM
[8]
  IC50: ≥ 10000 nM
[9]
  IC50: ≥ 10000 nM
[10]
  IC50: ≥ 10000 nM
[11]
  IC50: 0.024 µM
[12]
  IC50: 0.042 µM
[13]
  IC50: 0.081 µM
[14]
  IC50: 0.038 µM
[15]
  IC50: 0.042 µM
[16]
  IC50: 0.037 µM
[17]
  IC50: 0.041 µM

## C[C@@H]1C[C@@H]1c1c(Cl)cc(O)cc1-c1ncc2c(N3CCCC(C)(O)C3)nc(OCC34CCCN3CCC4)nc2c1F (stereo partly drawn) [Example 132, 1-(7-(3-chloro-5-hydroxy-2-((1S,2R)-2-methylcyclopropyl)phenyl)-8-fluoro-2-((tetrahydro-1H-pyrrolizin-7a(5H)-yl)methoxy)pyrido[4,3-d]pyrimidin-4-yl)-3-methylpiperidin-3-ol]
[3]
  IC50: ≥ 10000 nM
[4]
  IC50: 104 nM
[5]
  IC50: ≥ 10000 nM
[6]
  IC50: 27 nM
[7]
  IC50: 131 nM
[8]
  IC50: 206 nM
[9]
  IC50: ≥ 10000 nM
[10]
  IC50: ≥ 10000 nM
[11]
  IC50: 0.009 µM
[12]
  IC50: 0.005 µM
[13]
  IC50: 0.006 µM
[18]
  IC50: 0.623 µM
[19]
  IC50: 0.912 µM

## CCc1c(F)ccc2cc(O)cc(-c3ncc4c(NCCC(N)=O)nc(OC[C@@]56CCCN5C[C@H](F)C6)nc4c3F)c12 [Example 141]
[3]
  IC50: 875 nM
[4]
  IC50: 210 nM
[5]
  IC50: ≥ 10000 nM
[6]
  IC50: 282 nM
[7]
  IC50: 88 nM
[8]
  IC50: 1110 nM
[9]
  IC50: ≥ 10000 nM
[10]
  IC50: ≥ 10000 nM
[11]
  IC50: ≤ 0.002 µM
[12]
  IC50: ≤ 0.002 µM
[13]
  IC50: ≤ 0.002 µM
[18]
  IC50: 0.641 µM
[19]
  IC50: 2.13 µM

## CCc1c(F)ccc2cc(O)cc(-c3ncc4c(N5CCC[C@@](C)(O)C5)nc(OCC56CCCN5CCC6)nc4c3F)c12 [Example 27]
[1]
  IC50: ≤ 2 nM
[2]
  IC50: ≤ 2 nM
[3]
  IC50: 300 nM
[4]
  IC50: 45 nM
[5]
  IC50: 88 nM
[6]
  IC50: 20 nM
[7]
  IC50: 22 nM
[8]
  IC50: 33 nM
[9]
  IC50: 232 nM
[10]
  IC50: 2920 nM
[11]
  IC50: ≤ 0.002 µM
[12]
  IC50: ≤ 0.002 µM
[13]
  IC50: ≤ 0.002 µM
[14]
  IC50: ≤ 0.002 µM
[15]
  IC50: ≤ 0.002 µM
[16]
  IC50: ≤ 0.002 µM
[17]
  IC50: ≤ 0.002 µM
